From paper PMC12775434, “Ultra-large virtual screening unveils potent agonists of the neuromodulatory orphan receptor GPR139” (Nature Communications, 2025)
Values joined by “and” are separate entries in the source; they are usually repeats but may differ in a detail not shown here. Equal entries are not always repeated.

Tests used:
GPR139 [1] = molecular target: T1, GPR139 (Homo sapiens, UniProt Q6DWJ6); experiment: Ca2+ mobilization assay, antagonist mode (EC80 800 nM Lundbeck Cmp 1a after 20 min preincubation), GPR139-CHOk1; type: cell-based; conditions: individual replicates (Supplementary Figure 1)
T1 sequence (Q6DWJ6 1-353): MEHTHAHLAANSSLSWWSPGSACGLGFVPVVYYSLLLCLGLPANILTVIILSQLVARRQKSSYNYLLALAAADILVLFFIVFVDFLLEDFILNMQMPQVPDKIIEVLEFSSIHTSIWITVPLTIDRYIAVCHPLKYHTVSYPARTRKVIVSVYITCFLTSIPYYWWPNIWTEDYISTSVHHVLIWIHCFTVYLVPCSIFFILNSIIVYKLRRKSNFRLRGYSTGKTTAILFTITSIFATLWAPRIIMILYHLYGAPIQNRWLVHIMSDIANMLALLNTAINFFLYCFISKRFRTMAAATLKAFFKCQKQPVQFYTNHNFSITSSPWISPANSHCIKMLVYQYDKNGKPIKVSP
Experimental: (§1) 30,000 GPR139- or M1R-CHOk1 cells/well were seeded in black clear bottom tissue culture treated 96-well plates (Greiner #655090) and grown for 20–24 h. Cells were washed with HEPES buffer (Hank’s Balanced Salt Solution (HBBS) supplemented with 20 mM HEPES, 1 mM MgCl2, and 1 mM CaCl2; pH 7.4). Cells were loaded with 50 µL of 2 µM Fluo-4 AM dye (ThermoFisher #F14202) in HEPES buffer supplemented with 2.5 mM probenecid and 0.01% Pluronic F-68 (ThermoFisher #24040032) for 1 h at 37 °C. Cells were washed with HEPES buffer. 50 µL HEPES buffer supplemented with 2.5 mM probenecid was added, and the cells were incubated for 10 min at 37 °C before measurement. 50 µL test compounds diluted in HEPES buffer from DMSO stocks (final DMSO concentration of maximally 0.3%) were added automatically after baseline measurements. The intracellular calcium mobilization was measured on a FlexStation 3 Multimode Microplate Reader (Molecular Devices) at 37 °C with filters for excitation of 485 nm and emission of 525 nm.
Our primary compound screening protocol consisted of two subsequent steps that allowed to screen for agonists and antagonists simultaneously. In the first step, the screening compounds were applied at 10 µM to test for agonist activity (agonist mode). Following 20 min incubation with the compounds added in the first step, in the second step, an EC80 concentration (800 nM) of the reference agonist Lundbeck Cmp 1a was applied to test for antagonist activity (antagonist mode). In the agonist mode (first step) response is seen only with compounds having agonist activity (Cmp 1a), but not with non-receptor-binding compounds (Vehicle) or antagonists (NCRW0105-E06) (Supplementary Fig. 14). […] No antagonist compounds were identified in this study.

GPR139 [2] = molecular target: T1, GPR139; experiment: Ca2+ mobilization assay, agonist mode, stable GPR139-CHOk1 cell line; type: cell-based
Experimental: Primary screening and pharmacological characterization of compounds were performed using a CHO-K1 cell line that stably expresses human GPR139 (GPR139-CHOk1). The GPR139-CHOk1 cell line was kindly provided by H. Lundbeck A/S, Denmark[24]. GPR139-CHOk1 cells were grown in Ham’s F-12 Kaighn’s Modification Medium (ThermoFisher #21127030) supplemented with 10% dialyzed fetal bovine serum (US origin, ThermoFisher #26400044), 100 units/mL Penicillin-Streptomycin (ThermoFisher #15140122), and 1 mg/mL Geneticin (ThermoFisher #11811031). […] M1R-CHOk1 cells were purchased from The Missouri S&T cDNA Resource Center (#CEM100TN00). M1R-CHOk1 cells were grown in Ham’s F12 Medium (ThermoFisher #21765029) supplemented with 10% fetal bovine serum (Brazilian origin, ThermoFisher #10270106), 100 units/mL Penicillin-Streptomycin, and 0.25 mg/mL Geneticin. HEK293A cells transiently transfected with GPR139 were used for additional pharmacological assessment of signaling pathways activated by GPR139. HEK239A cells were generously provided by Dr. Asuka Inoue, Tohoku University, Japan. HEK293A cells were grown in Dulbecco’s Modified Eagle Medium (ThermoFisher #31966047) supplemented with 10% dialyzed fetal bovine serum and 100 units/mL Penicillin-Streptomycin. Cell lines were maintained at 37 °C in humidified incubator equilibrated with 5% CO2.
as §1
Our primary compound screening protocol consisted of two subsequent steps that allowed to screen for agonists and antagonists simultaneously. In the first step, the screening compounds were applied at 10 µM to test for agonist activity (agonist mode). Following 20 min incubation with the compounds added in the first step, in the second step, an EC80 concentration (800 nM) of the reference agonist Lundbeck Cmp 1a was applied to test for antagonist activity (antagonist mode).
Pharmacological data and statistical analyses were performed in GraphPad Prism v9–10 (Graphpad Software Inc., San Diego, CA), which are also specifically described in the figure and table legends. The functional assay responses were normalized to buffer (0%) and Lundbeck Cmp 1a or JNJ-63533054 (100%), for Ca^2+ and IP1 experiments in the GPR139-CHOk1 stable cell line or Ca^2+, G protein activation, and arrestin-3 recruitment experiments in the HEK293A cells transiently transfected with GPR139, respectively. Data are from at least three independent experiments, unless stated otherwise. Concentration-response curves were fitted applying non-linear regression using the log (agonist) versus response model with variable slope. ANOVA was applied for comparing results and determining statistical significance.

[3] = Agonist mode, individual replicates (Supplementary Figure 1)

Compound	Ca2+ signal (% of Cmp 1a) (GPR139 [1])	Ca2+ signal (% of Cmp 1a) (GPR139 [2]; [3])	Ca2+ signal (% of Cmp 1a) (GPR139 [2]; primary screen, 10 µM compound, agonist mode, three columns = independent experiments)
Cc1ccc(NC(=O)C2Cc3ccccc32)cc1C(=O)N(C)C(C)C (stereo not drawn) [Compound 41, CC(C)N(C)C(=O)C=1C=C(NC(=O)C2CC=3C=CC=CC23)C=CC1C]	75.8841 % of Cmp 1a and 100.088 % of Cmp 1a and 66.5963 % of Cmp 1a	0.898 % of Cmp 1a and -4.45 % of Cmp 1a and -1.11 % of Cmp 1a	
O=C(CCn1nnn(-c2ccccc2)c1=O)Nc1ccc(F)cc1 [Compound 57, FC=1C=CC(NC(=O)CCN2N=NN(C=3C=CC=CC3)C2=O)=CC1]	80.3514 % of Cmp 1a and 84.9179 % of Cmp 1a and 81.9632 % of Cmp 1a	6 % of Cmp 1a and 0.524 % of Cmp 1a and 4 % of Cmp 1a	
O=C(NCC1CC=CCC1)Nc1cnn(-c2cnc3ccccc3n2)c1 (stereo not drawn) [Compound 28, O=C(NCC1CCC=CC1)NC=2C=NN(C2)C=3C=NC=4C=CC=CC4N3]	78.5136 % of Cmp 1a and 66.4897 % of Cmp 1a and 98.5524 % of Cmp 1a	-7.43 % of Cmp 1a and 8 % of Cmp 1a and 9 % of Cmp 1a	
CCn1c(Nc2ccn(C)n2)nnc1-c1n[nH]c(=O)c2ccccc12 [Compound 45, CCN1C(NC=2C=CN(C)N2)=NN=C1C3=NNC(=O)C=4C=CC=CC34]	78.1245 % of Cmp 1a and 83.0928 % of Cmp 1a and 73.9872 % of Cmp 1a	0.117 % of Cmp 1a and 7 % of Cmp 1a and 8 % of Cmp 1a	
CCN(C(=O)c1cc(Cc2ccccc2)n[nH]1)c1ccc(F)cc1 [Compound 62, CCN(C(=O)C1=CC(CC=2C=CC=CC2)=NN1)C=3C=CC(F)=CC3]	74.8769 % of Cmp 1a and 70.0616 % of Cmp 1a and 70.7351 % of Cmp 1a	3 % of Cmp 1a and 5.34 % of Cmp 1a and 3.55 % of Cmp 1a	3 % of Cmp 1a and 5.34 % of Cmp 1a and 3.55 % of Cmp 1a
CN(Cc1ncc(Cl)n1C)c1nc2cc([N+](=O)[O-])ccc2[nH]1 [Compound 40, CN(CC1=NC=C(Cl)N1C)C2=NC=3C=C(C=CC3N2)[N+](=O)[O-]]	84.3072 % of Cmp 1a and 83.9821 % of Cmp 1a and 105.029 % of Cmp 1a	-0.934 % of Cmp 1a and 6 % of Cmp 1a and 11 % of Cmp 1a	
Cn1nc(-c2ccc(F)cc2F)cc1NC(=O)NCc1ccccn1 [Compound 42, CN1N=C(C=C1NC(=O)NCC=2C=CC=CN2)C=3C=CC(F)=CC3F]	73.5301 % of Cmp 1a and 76.7288 % of Cmp 1a and 79.4888 % of Cmp 1a	0.111 % of Cmp 1a and 2.67 % of Cmp 1a and 15 % of Cmp 1a	
C[C@@H](NC(=O)CSc1nnc(C(F)(F)F)s1)c1ccccc1 [Compound 54, C[C@@H](NC(=O)CSC1=NN=C(S1)C(F)(F)F)C=2C=CC=CC2]	75.2455 % of Cmp 1a and 70.4918 % of Cmp 1a and 82.6113 % of Cmp 1a	0.563 % of Cmp 1a and 1.54 % of Cmp 1a and 23 % of Cmp 1a	
C[C@@H](NC(=O)CSc1nc2cc(Cl)cnc2[nH]1)c1ccccc1 [Compound 63, C[C@@H](NC(=O)CSC1=NC=2C=C(Cl)C=NC2N1)C=3C=CC=CC3]	69.704 % of Cmp 1a and 80.7602 % of Cmp 1a and 71.5084 % of Cmp 1a	14 % of Cmp 1a and 5 % of Cmp 1a and 16 % of Cmp 1a	
O=C(NCc1ccc(Cl)s1)c1ccnc(-n2cncn2)c1 [Compound 64, ClC1=CC=C(CNC(=O)C=2C=CN=C(C2)N3C=NC=N3)S1]	87.3464 % of Cmp 1a and 90.999 % of Cmp 1a and 82.6211 % of Cmp 1a	-4 % of Cmp 1a and -5 % of Cmp 1a and -0.942 % of Cmp 1a	
Cc1ccc(C(C)(C)NC(=O)Nc2cnc3nccn3c2)cn1 [Compound 56, CC=1C=CC(=CN1)C(C)(C)NC(=O)NC=2C=NC3=NC=CN3C2]	82.8713 % of Cmp 1a	5.3 % of Cmp 1a	
C[C@H](NC(=O)c1ccc(=O)n(-c2ccc(F)cc2)n1)c1ccccc1 [Compound 16, C[C@H](NC(=O)C=1C=CC(=O)N(N1)C=2C=CC(F)=CC2)C=3C=CC=CC3]	74.1067 % of Cmp 1a and 36.0111 % of Cmp 1a and 92.3974 % of Cmp 1a	-6 % of Cmp 1a and 42 % of Cmp 1a and 24 % of Cmp 1a	
CC(=O)Nc1nc(Cn2cnc3c2CC(C)C(C)C3)cs1 (stereo not drawn) [Compound 47, CC1CC=2N=CN(CC3=CSC(NC(=O)C)=N3)C2CC1C]	79.7228 % of Cmp 1a and 79.8068 % of Cmp 1a and 92.3954 % of Cmp 1a	-0.697 % of Cmp 1a and 10 % of Cmp 1a and 0.881 % of Cmp 1a	
C[C@H](NC(=O)C1(OCc2ccccc2)CCOCC1)c1ccccc1 [Compound 26, C[C@H](NC(=O)C1(CCOCC1)OCC=2C=CC=CC2)C=3C=CC=CC3]	89.3069 % of Cmp 1a and 86.2472 % of Cmp 1a and 83.3433 % of Cmp 1a	2.84 % of Cmp 1a and -5 % of Cmp 1a and 4.48 % of Cmp 1a	
Cc1ccc(-n2cc(NC(=O)NCc3cccs3)cn2)c(C)c1 [Compound 37, CC=1C=CC(=C(C)C1)N2C=C(NC(=O)NCC3=CC=CS3)C=N2]	89.9792 % of Cmp 1a and 76.2749 % of Cmp 1a and 86.0947 % of Cmp 1a	-6 % of Cmp 1a and 12 % of Cmp 1a and 7 % of Cmp 1a	
Cc1nnsc1C(=O)N1CCCC1c1nc2cc(Cl)ccc2[nH]1 (stereo not drawn) [Compound 38, CC=1N=NSC1C(=O)N2CCCC2C3=NC=4C=C(Cl)C=CC4N3]	85.3922 % of Cmp 1a and 96.4303 % of Cmp 1a and 86.2753 % of Cmp 1a	1.3 % of Cmp 1a and 1.18 % of Cmp 1a and -5.34 % of Cmp 1a	
CC(CC(=O)N(CC(=O)N1CCCC1)CC1CCCO1)n1cccc1 (stereo not drawn) [Compound 22, CC(CC(=O)N(CC1CCCO1)CC(=O)N2CCCC2)N3C=CC=C3]	90.9616 % of Cmp 1a and 92.7534 % of Cmp 1a and 72.9128 % of Cmp 1a	10 % of Cmp 1a and -5.34 % of Cmp 1a and 0.0706 % of Cmp 1a	
CC(NC(=O)N(C)Cc1cccc(N(C)C)c1)c1csnn1 (stereo not drawn) [Compound 50, CC(NC(=O)N(C)CC=1C=CC=C(C1)N(C)C)C2=CSN=N2]	75.065 % of Cmp 1a and 68.1289 % of Cmp 1a and 85.7156 % of Cmp 1a	-2.47 % of Cmp 1a and 0.0154 % of Cmp 1a and -4 % of Cmp 1a	
Cn1c(SCC(=O)Nc2c(F)cccc2F)nc2ccccc21 [Compound 30, CN1C(SCC(=O)NC=2C(F)=CC=CC2F)=NC=3C=CC=CC13]	67.1888 % of Cmp 1a and 62.1843 % of Cmp 1a and 60.1781 % of Cmp 1a	-6.62 % of Cmp 1a and 1.6 % of Cmp 1a and 14 % of Cmp 1a	
